Measured values published in patent US8765741B2, “5,6-dihydro-1H-pyridin-2-one compounds” (Anadys Pharmaceuticals, Inc., priority 2007, dated 2014).

biological target: NS5B polymerase (Hepatitis C virus genotype 1b, UniProt P26663); test: biochemical; settings: not given
Protocol: Compounds were tested for HCV polymerase inhibition. Assays were performed in a 96-well streptavidin-coated FlashPlate using 20 nM enzyme, 0.5 μCi of [α-^33P]GTP, 0.6 μM GTP, and 250 nM 5′biotinylated oligo (rG13)/poly rC in 20 mM Tris-HCl, pH 7.5, 5 mM MgCl2, 5 mM dithiothreitol, 0.1 g/L bovine serum albumin, and 100 U/mL RNAse inhibitor. The reaction was stopped by aspiration after 75 min at 28° C. and the plate was washed several times. After washing and drying the plate, incorporated radioactivity was counted using a Microbeta scintillation counter. IC50 values were calculated relative to the uninhibited control and inhibition data were fitted to a 4-parameter IC50 equation.

NS5B polymerase, sequence (P26663 2420-3010): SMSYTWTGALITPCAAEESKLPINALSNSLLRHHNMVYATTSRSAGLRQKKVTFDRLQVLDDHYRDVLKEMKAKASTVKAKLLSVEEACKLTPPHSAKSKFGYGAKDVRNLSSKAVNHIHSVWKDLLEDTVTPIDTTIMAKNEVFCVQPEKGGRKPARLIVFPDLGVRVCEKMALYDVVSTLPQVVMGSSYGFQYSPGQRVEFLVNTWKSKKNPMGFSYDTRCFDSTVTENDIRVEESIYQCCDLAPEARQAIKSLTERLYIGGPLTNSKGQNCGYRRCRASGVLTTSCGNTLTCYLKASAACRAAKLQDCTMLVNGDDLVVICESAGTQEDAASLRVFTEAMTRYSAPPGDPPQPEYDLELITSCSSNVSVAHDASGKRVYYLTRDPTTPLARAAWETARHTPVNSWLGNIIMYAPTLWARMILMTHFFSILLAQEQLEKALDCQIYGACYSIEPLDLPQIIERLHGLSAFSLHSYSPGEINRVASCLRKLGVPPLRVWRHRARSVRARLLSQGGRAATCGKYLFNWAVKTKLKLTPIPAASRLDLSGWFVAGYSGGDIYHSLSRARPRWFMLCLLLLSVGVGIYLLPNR

| SMILES | IC50 |
| --- | --- |
| CS(=O)(=O)Nc1ccc2c(c1)S(=O)(=O)N=C(C1=C(O)[C@@H]3[C@@H]4CC[C@@H](C4)[C@@H]3N(Cc3ccc(F)cc3)C1=O)N2 [Example 4, N-{3-[(1S,2S,7R,8R)-3-(4-Fluoro-benzyl)-6-hydroxy-4-oxo-3-aza-tricyclo[6.2.1.0^2,7]undec-5-en-5-yl]-1,1-dioxo-1,4-dihydro-1λ^6-benzo[1,2,4]thiadiazin-7-yl}-methanesulfonamide] | < 20 nM |
| CS(=O)(=O)Nc1ccc2c(c1)S(=O)(=O)N=C(C1=C(O)[C@H]3[C@H]4CC[C@H](C4)[C@H]3N(Cc3ccc(F)cc3)C1=O)N2 [Example 5, N-{3-[(1R,2R,7S,8S)-3-(4-Fluoro-benzyl)-6-hydroxy-4-oxo-3-aza-tricyclo[6.2.1.0^2,7]undec-5-en-5-yl]-1,1-dioxo-1,4-dihydro-1λ^6-benzo[1,2,4]thiadiazin-7-yl}-methanesulfonamide] | 100 to 1000 nM |
| CS(=O)(=O)Nc1ccc2c(c1)S(=O)(=O)N=C(C1=C(O)[C@@H]3[C@H]4CC[C@H](C4)[C@@H]3N(Cc3ccc(F)cc3)C1=O)N2 [Example 6, N-{3-[(1R,2S,7R,8S)-3-(4-Fluoro-benzyl)-6-hydroxy-4-oxo-3-aza-tricyclo[6.2.1.0^2,7]undec-5-en-5-yl]-1,1-dioxo-1,4-dihydro-1λ^6-benzo[1,2,4]thiadiazin-7-yl}-methanesulfonamide] | < 20 nM |
| CS(=O)(=O)Nc1ccc2c(c1)S(=O)(=O)N=C(C1=C(O)[C@H]3[C@@H]4CC[C@@H](C4)[C@H]3N(Cc3ccc(F)cc3)C1=O)N2 [Example 7, N-{3-[(1S,2R,7S,8R)-3-(4-Fluoro-benzyl)-6-hydroxy-4-oxo-3-aza-tricyclo[6.2.1.0^2,7]undec-5-en-5-yl]-1,1-dioxo-1,4-dihydro-1λ^6-benzo[1,2,4]thiadiazin-7-yl}-methanesulfonamide] | 100 to 1000 nM |

same assay, conditions: NS5B polymerase inhibition; 20 nM enzyme, 75 min at 28° C.; read-out: IC50

| SMILES | IC50 |
| --- | --- |
| CS(=O)(=O)Nc1ccc2c(c1)S(=O)(=O)N=C(C1=C(O)C3C4CCC(O4)C3N(C3CCCC3)C1=O)N2 (racemic) [Example 48, (rac-di-exo)-N-[3-(3-Cyclopentyl-6-hydroxy-4-oxo-11-oxa-3-aza-tricyclo[6.2.1.0^2,7]undec-5-en-5-yl)-1,1-dioxo-1,4-dihydro-1λ^6-benzo[1,2,4]thiadiazin-7-yl]-methanesulfonamide] | 20 to 100 nM |
| CS(=O)(=O)Nc1ccc2c(c1)S(=O)(=O)N=C(C1=C(O)[C@H]3[C@H]4CC[C@H]([C@@H]5C[C@@H]54)[C@H]3N(Cc3ccc(F)cc3)C1=O)N2 (racemic) [Example 51, rac-N-{3-[(1R,2R,7S,8S,9S,11R)-3-[(4-Fluorophenyl)methyl]-6-hydroxy-4-oxo-3-azatetracyclo[6.3.2.0^2,7.0^9,11]tridec-5-en-5-yl]-1,1-dioxo-4H-1λ^6,2,4-benzothiadiazin-7-yl}methanesulfonamide] | 20 to 100 nM |
| CS(=O)(=O)Nc1ccc2c(c1)S(=O)(=O)N=C(C1=C(O)C3C4CCC(C5CC54)C3N(Cc3ccc(F)cc3)C1=O)N2 (racemic) [Example 52] | 20 to 100 nM |
| CC(C)CCN1C(=O)C(C2=NS(=O)(=O)c3cc(N(C)S(C)(=O)=O)ccc3N2)=C(O)C2C3CCC(O3)C21 (racemic) [Example 59, (rac-di-exo)-N-{3-[6-Hydroxy-3-(3-methyl-butyl)-4-oxo-11-oxa-3-aza-tricyclo[6.2.1.0^2,7]undec-5-en-5-yl]-1,1-dioxo-1,4-dihydro-1λ^6-benzo[1,2,4]thiadiazin-7-yl}-N-methyl-methanesulfonamide] | 100 to 1000 nM |
| CS(=O)(=O)Nc1ccc2c(c1)S(=O)(=O)N=C(C1=C(O)C3C(C4CC(O)[C@H]3C4)N(Cc3ccc(F)cc3)C1=O)N2 (stereo in doubt) [Example 67, N-{3-[(1R,2S,7R,8S)-3-(4-Fluoro-benzyl)-6,9-dihydroxy-4-oxo-3-aza-tricyclo[6.2.1.0^2,7]undec-5-en-5-yl]-1,1-dioxo-1,4-dihydro-1λ^6-benzo[1,2,4]thiadiazin-7-yl}-methanesulfonamide] | < 20 nM |
| Cc1cc(CN2C(=O)C(C3=NS(=O)(=O)c4cc(NS(C)(=O)=O)ccc4N3)=C(O)[C@H]3[C@@H]2[C@@H]2CC[C@H]3O2)ccc1F [Example 11, N-{3-[(1S,2R,7S,8R)-3-(4-Fluoro-3-methyl-benzyl)-6-hydroxy-4-oxo-11-oxa-3-aza-tricyclo[6.2.1.0^2,7]undec-5-en-5-yl]-1,1-dioxo-1,4-dihydro-1λ^6-benzo[1,2,4]thiadiazin-7-yl}-methanesulfonamide] | < 20 nM |
| CS(=O)(=O)Nc1ccc2c(c1)S(=O)(=O)N=C(C1=C(O)[C@H]3[C@H]([C@@H]4CC[C@H]3O4)N(Cc3ccc(F)cc3)C1=O)N2 [Example 14, N-{3-[(1S,2R,7S,8R)-3-(4-Fluoro-benzyl)-6-hydroxy-4-oxo-11-oxa-3-aza-tricyclo[6.2.1.0^2,7]undec-5-en-5-yl]-1,1-dioxo-1,4-dihydro-1λ^6-benzo[1,2,4]thiadiazin-7-yl}-methanesulfonamide] | < 20 nM |
| CS(=O)(=O)Nc1ccc2c(c1)S(=O)(=O)N=C(C1=C(O)[C@@H]3[C@H]4CC[C@H](C4)[C@@H]3N(Cc3ccc(F)c(F)c3)C1=O)N2 [Example 16, N-{3-[(1R,2S,7R,8S)-3-(3,4-Difluoro-benzyl)-6-hydroxy-4-oxo-3-aza-tricyclo[6.2.1.0^2,7]undec-5-en-5-yl]-1,1-dioxo-1,4-dihydro-1λ^6-benzo[1,2,4]thiadiazin-7-yl}-methanesulfonamide] | < 20 nM |
| CN(c1ccc2c(c1)S(=O)(=O)N=C(C1=C(O)[C@@H]3[C@H]4CC[C@H](C4)[C@@H]3N(Cc3ccc(F)c(F)c3)C1=O)N2)S(C)(=O)=O [Example 17, N-{3-[(1R,2S,7R,8S)-3-(3,4-Difluoro-benzyl)-6-hydroxy-4-oxo-3-aza-tricyclo[6.2.1.0^2,7]undec-5-en-5-yl]-1,1-dioxo-1,4-dihydro-1λ^6-benzo[1,2,4]thiadiazin-7-yl}-N-methyl-methanesulfonamide] | 20 to 100 nM |
| Cc1cc(CN2C(=O)C(C3=NS(=O)(=O)c4cc(N(C)S(C)(=O)=O)ccc4N3)=C(O)[C@@H]3[C@H]4CC[C@H](C4)[C@@H]32)ccc1F [Example 18, N-{3-[(1R,2S,7R,8S)-3-(4-Fluoro-3-methyl-benzyl)-6-hydroxy-4-oxo-3-aza-tricyclo[6.2.1.0^2,7]undec-5-en-5-yl]-1,1-dioxo-1,4-dihydro-1λ^6-benzo[1,2,4]thiadiazin-7-yl}-N-methyl-methanesulfonamide] | 20 to 100 nM |
| O=C1C(C2=NS(=O)(=O)c3cc(I)ccc3N2)=C(O)[C@@H]2[C@H]3CC[C@H](C3)[C@@H]2N1Cc1ccc(F)cc1 [Example 19, (1R,2S,7R,8S)-3-(4-Fluoro-benzyl)-6-hydroxy-5-(7-iodo-1,1-dioxo-1,4-dihydro-1λ^6-benzo[1,2,4]thiadiazin-3-yl)-3-aza-tricyclo[6.2.1.0^2,7]undec-5-en-4-one] | 1000 to 100000 nM |
| O=C1C(C2=NS(=O)(=O)c3cc(C4=CCCS4(=O)=O)ccc3N2)=C(O)[C@@H]2[C@H]3CC[C@H](C3)[C@@H]2N1Cc1ccc(F)cc1 [Example 20, (1R,2S,7R,8S)-5-[7-(1,1-Dioxo-4,5-dihydro-1H-1λ^6-thiophen-2-yl)-1,1-dioxo-1,4-dihydro-1λ^6-benzo[1,2,4]thiadiazin-3-yl]-3-(4-fluoro-benzyl)-6-hydroxy-3-aza-tricyclo[6.2.1.0^2,7]undec-5-en-4-one] | 100 to 1000 nM |
| O=C1C(C2=NS(=O)(=O)c3cc(C4CCCS4(=O)=O)ccc3N2)=C(O)[C@@H]2[C@H]3CC[C@H](C3)[C@@H]2N1Cc1ccc(F)cc1 (stereo partly drawn) [Example 21, (1R,2S,7R,8S)-5-[7-(1,1-Dioxo-tetrahydro-1λ^6-thiophen-2-yl)-1,1-dioxo-1,4-dihydro-1λ^6-benzo[1,2,4]thiadiazin-3-yl]-3-(4-fluoro-benzyl)-6-hydroxy-3-aza-tricyclo[6.2.1.0^2,7]undec-5-en-4-one] | 20 to 100 nM |
| CC(C)CCN1C(=O)C(C2=NS(=O)(=O)c3cc(NS(C)(=O)=O)ccc3N2)=C(O)[C@@H]2[C@H]3CC[C@H](C3)[C@@H]21 [Example 22, (1R,2S,7R,8S)-N-{3-[6-Hydroxy-3-(3-methyl-butyl)-4-oxo-3-aza-tricyclo[6.2.1.0^2,7]undec-5-en-5-yl]-1,1-dioxo-1,4-dihydro-1λ^6-benzo[1,2,4]thiadiazin-7-yl}-methanesulfonamide] | 20 to 100 nM |
| CC(C)CCN1C(=O)C(C2=NS(=O)(=O)c3cc(N(C)S(C)(=O)=O)ccc3N2)=C(O)[C@@H]2[C@H]3CC[C@H](C3)[C@@H]21 [Example 24, (1R,2S,7R,8S)-N-{3-[6-Hydroxy-3-(3-methyl-butyl)-4-oxo-3-aza-tricyclo[6.2.1.0^2,7]undec-5-en-5-yl]-1,1-dioxo-1,4-dihydro-1λ^6-benzo[1,2,4]thiadiazin-7-yl}-N-methyl-methanesulfonamide] | 100 to 1000 nM |
| O=C1C(C2=NS(=O)(=O)c3cc(N4CCCS4(=O)=O)ccc3N2)=C(O)[C@@H]2[C@H]3CC[C@H](C3)[C@@H]2N1Cc1ccc(F)cc1 [Example 26, (1R,2S,7R,8S)-5-[7-(1,1-Dioxo-1λ^6-isothiazolidin-2-yl)-1,1-dioxo-1,4-dihydro-1λ^6-benzo[1,2,4]thiadiazin-3-yl]-3-(4-fluoro-benzyl)-6-hydroxy-3-aza-tricyclo[6.2.1.0^2,7]undec-5-en-4-one] | 100 to 1000 nM |
| CS(=O)(=O)Nc1ccc2c(c1)S(=O)(=O)N=C(C1=C(O)[C@@H]3[C@H]4CC[C@H](C4)[C@@H]3NC1=O)N2 [Example 27, (1R,2S,7R,8S)-N-[3-(6-Hydroxy-4-oxo-3-aza-tricyclo[6.2.1.0^2,7]undec-5-en-5-yl)-1,1-dioxo-1,4-dihydro-1λ^6-benzo[1,2,4]thiadiazin-7-yl]-methanesulfonamide] | 1000 to 100000 nM |
| O=C1C(C2=NS(=O)(=O)c3ccccc3N2)=C(O)[C@@H]2[C@H]3CC[C@H](C3)[C@@H]2N1Cc1ccc(F)cc1 [Example 28, (1R,2S,7R,8S)-5-(1,1-Dioxo-1,4-dihydro-1λ^6-benzo[1,2,4]thiadiazin-3-yl)-3-(4-fluoro-benzyl)-6-hydroxy-3-aza-tricyclo[6.2.1.0^2,7]undec-5-en-4-one] | 100 to 1000 nM |
